Results published in patent US11479546B2, “Antimalarial hexahydropyrimidine analogues” (UCB Biopharma SRL, priority 2018, dated 2022).

Test system: Plasmodium falciparum 3D7
Test: P. falciparum 3D7 asexual blood stage assay, Assay Procedure Version 2 (SYBR green readout)
Type: cell-based
Details: Plasmodium falciparum, 3D7, Erythrocyte, 72 h, Version 2 of the assay procedure (asterisk *); 72 h incubation in infected erythrocytes; 50,000 nM to 15 nM
Summary of the method: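 P. falciparum 3D7 in A+ erythrocytes (5% haematocrit, 0.5% parasitaemia) exposed 72 h at 37 °C (1% O2, 3% CO2) to 20-point 1.5-fold titrations, final 50,000–15 nM in 0.5% DMSO. SYBR green in lysis buffer overnight, fluorescence 485/528 nm; % inhibition vs mefloquine and DMSO controls, EC50 from biphasic two-site fit.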

Row | Compound | IC50 [nM]
1 | C[C@@]1(c2cccc(Nc3cccc(Oc4ccccc4)c3)c2Cl)CC(=O)N(C2CCOCC2)C(=N)N1 [Example 75, (6S)-6-[2-Chloro-3-(3-phenoxy-anilino)phenyl]-2-imino-6-methyl-3-(tetrahydropyran-4-yl)hexahydropyrimidin-4-one] | 1460
2 | CC(C)Oc1ccccc1Nc1cccc([C@]2(C)CC(=O)N(C3CCOCC3)C(=N)N2)c1Cl [Example 76, (6S)-6-[2-Chloro-3-(2-isopropoxyanilino)phenyl]-2-imino-6-methyl-3-(tetrahydro-pyran-4-yl)hexahydropyrimidin-4-one] | 757
3 | C[C@@]1(c2cccc(Nc3cccc(N4CCCC4=O)c3)c2Cl)CC(=O)N(C2CCOCC2)C(=N)N1 [Example 79, (6S)-6-{2-Chloro-3-[3-(2-oxo-pyrrolidin-1-yl)anilino]phenyl}-2-imino-6-methyl-3-(tetrahydro-pyran-4-yl)hexahydropyrimidin-4-one] | 401
4 | C[C@@]1(c2cccc(Nc3ccc(C(F)F)nc3)c2Cl)CC(=O)N(C2CCOCC2)C(=N)N1 [Example 81, (6S)-6-(2-Chloro-3-{[6-(difluoromethyl)pyridin-3-yl]-amino}phenyl)-2-imino-6-methyl-3-tetrahydropyran-4-yl-hexahydropyrimidin-4-one] | 425
5 | C[C@@]1(c2cccc(Nc3ccc(C(F)(F)F)cc3C#N)c2Cl)CC(=O)N(C2CCOCC2)C(=N)N1 [Example 83, 2-{2-Chloro-3-[(4S)-2-imino-4-methyl-6-oxo-1-(tetrahydro-pyran-4-yl)hexahydropyrimidin-4-yl]anilino}-5-(trifluoro-methyl)benzonitrile] | 357
6 | C[C@@]1(c2cccc(Nc3ccc4ncnn4c3)c2Cl)CC(=O)N(C2CCOCC2)C(=N)N1 [Example 85, (6S)-6-[2-Chloro-3-([1,2,4]-triazolo[1,5-a]pyridin-6-yl-amino)phenyl]-2-imino-6-methyl-3-(tetrahydropyran-4-yl)hexahydropyrimidin-4-one] | 1790
7 | CN1CCOc2cc(Nc3cccc([C@]4(C)CC(=O)N(C5CCOCC5)C(=N)N4)c3Cl)ccc21 [Example 86, (6S)-6-{2-Chloro-3-[(4-methyl-2,3-dihydro-1,4-benzoxazin-7-yl)amino]phenyl}-2-imino-6-methyl-3-(tetrahydropyran-4-yl)hexahydropyrimidin-4-one] | 658
8 | COc1cc(Nc2cccc([C@]3(C)CC(=O)N(C4CCOCC4)C(=N)N3)c2Cl)ccn1 [Example 87, (6S)-6-{2-Chloro-3-[(2-methoxypyridin-4-yl)amino]-phenyl}-2-imino-6-methyl-3-(tetrahydropyran-4-yl)-hexahydropyrimidin-4-one] | 666
9 | Cc1ccc(Nc2cccc([C@]3(C)CC(=O)N(C4CCOCC4)C(=N)N3)c2Cl)c(C#N)n1 [Example 88, 3-{2-Chloro-3-[(4S)-2-imino-4-methyl-6-oxo-1-(tetrahydro-pyran-4-yl)hexahydropyrimidin-4-yl]anilino}-6-methylpyridine-2-carbonitrile] | 532
10 | C[C@@]1(c2cccc(Nc3ccc(F)cc3OC(F)F)c2Cl)CC(=O)N(C2CCOCC2)C(=N)N1 [Example 92, (6S)-6-{2-Chloro-3-[2-(difluoro-methoxy)-4-fluoro-anilino]-phenyl}-2-imino-6-methyl-3-(tetrahydropyran-4-yl)-hexahydropyrimidin-4-one] | 461
11 | Cc1ncc(Nc2cccc([C@]3(C)CC(=O)N(C4CCOCC4)C(=N)N3)c2Cl)cc1C(F)(F)F [Example 93, (6S)-6-(2-Chloro-3-{[6-methyl-5-(trifluoromethyl)pyridin-3-yl]-amino}phenyl)-2-imino-6-methyl-3-(tetrahydropyran-4-yl)hexahydropyrimidin-4-one] | 70
12 | C[C@@]1(c2cccc(Nc3cc4ccccc4nc3OC(F)F)c2Cl)CC(=O)N(C2CCOCC2)C(=N)N1 [Example 98, (6S)-6-(2-Chloro-3-{[2-(difluoromethoxy)quinolin-3-yl]amino}phenyl)-2-imino-6-methyl-3-(tetrahydropyran-4-yl)hexahydropyrimidin-4-one] | 224
13 | C[C@@]1(c2cccc(Nc3ccc(C4CC4)nc3)c2Cl)CC(=O)N(C2CCOCC2)C(=N)N1 [Example 99, (6S)-6-{2-Chloro-3-[(6-cyclo-propylpyridin-3-yl)amino]-phenyl}-2-imino-6-methyl-3-(tetrahydropyran-4-yl)-hexahydropyrimidin-4-one] | 66
14 | C[C@@]1(c2cccc(Nc3nccnc3OC(F)F)c2Cl)CC(=O)N(C2CCOCC2)C(=N)N1 [Example 101, (6S)-6-(2-Chloro-3-{[3-(difluoromethoxy)pyrazin-2-yl]-amino}phenyl)-2-imino-6-methyl-3-(tetrahydropyran-4-yl)hexahydropyrimidin-4-one] | 97

Further compounds by falling IC50, results first:

Row | IC50 [nM] | Compound
15 | 3110 | Cc1ncc(Nc2cccc([C@]3(C)CC(=O)N(C4CCOCC4)C(=N)N3)c2Cl)c2ccccc12 [Example 90, (6S)-6-{2-Chloro-3-[(1-methyl-isoquinolin-4-yl)amino]phenyl}-2-imino-6-methyl-3-(tetrahydro-pyran-4-yl)hexahydropyrimidin-4-one]
16 | 1540 | Cc1ccc(Nc2cccc([C@]3(C)CC(=O)N(C4CCOCC4)C(=N)N3)c2Cl)nn1 [Example 84, (6S)-6-{2-Chloro-3-[(6-methyl-pyridazin-3-yl)amino]phenyl}-2-imino-6-methyl-3-(tetrahydro-pyran-4-yl)hexahydropyrimidin-4-one]
17 | 1420 | Cn1cc2cc(Nc3cccc([C@]4(C)CC(=O)N(C5CCOCC5)C(=N)N4)c3Cl)ccc2n1 [Example 78, (6S)-6-{2-Chloro-3-[(2-methyl-indazol-5-yl)amino]phenyl}-2-imino-6-methyl-3-(tetrahydro-pyran-4-yl)hexahydropyrimidin-4-one]
18 | 896 | C[C@@]1(c2cccc(Nc3ccn4nccc4c3)c2Cl)CC(=O)N(C2CCOCC2)C(=N)N1 [Example 91, (6S)-6-[2-Chloro-3-(pyrazolo-[1,5-a]pyridin-5-ylamino)-phenyl]-2-imino-6-methyl-3-(tetrahydropyran-4-yl)-hexahydropyrimidin-4-one]
19 | 791 | Cn1cc2c(Nc3cccc([C@]4(C)CC(=O)N(C5CCOCC5)C(=N)N4)c3Cl)cccc2n1 [Example 77, (6S)-6-{2-Chloro-3-[(2-methyl-indazol-4-yl)amino]phenyl}-2-imino-6-methyl-3-(tetrahydro-pyran-4-yl)hexahydropyrimidin-4-one]
20 | 652 | Cc1nnc(-c2ccc(Nc3cccc([C@]4(C)CC(=O)N(C5CCOCC5)C(=N)N4)c3Cl)cc2)o1 [Example 80, (6S)-6-{2-Chloro-3-[4-(5-methyl-1,3,4-oxadiazol-2-yl)-anilino]phenyl}-2-imino-6-methyl-3-(tetrahydropyran-4-yl)hexahydropyrimidin-4-one]
21 | 551 | C[C@@]1(c2cccc(Nc3ccc(C4(C#N)CCC4)nc3)c2Cl)CC(=O)N(C2CCOCC2)C(=N)N1 [Example 103, 1-(5-{2-Chloro-3-[(4S)-2-imino-4-methyl-6-oxo-1-(tetrahydro-pyran-4-yl)hexahydropyrimidin-4-yl]anilino}pyridin-2-yl)-cyclobutanecarbonitrile]
22 | 456 | C[C@@]1(c2cccc(Nc3cnc(OC(F)F)c4ccccc34)c2Cl)CC(=O)N(C2CCOCC2)C(=N)N1 [Example 95, (6S)-6-(2-Chloro-3-{[1-(difluoromethoxy)isoquinolin-4-yl]amino}phenyl)-2-imino-6-methyl-3-(tetrahydropyran-4-yl)hexahydropyrimidin-4-one]
23 | 347 | C[C@@]1(c2cccc(Nc3ccc(C(F)F)nc3C#N)c2Cl)CC(=O)N(C2CCOCC2)C(=N)N1 [Example 100, 3-{2-Chloro-3-[(4S)-2-imino-4-methyl-6-oxo-1-(tetrahydro-pyran-4-yl)hexahydropyrimidin-4-yl]anilino}-6-(difluoro-methyl)pyridine-2-carbonitrile]
24 | 232 | C[C@@]1(c2cccc(Nc3cnc4ccccc4c3C#N)c2Cl)CC(=O)N(C2CCOCC2)C(=N)N1 [Example 89, 3-{2-Chloro-3-[(4S)-2-imino-4-methyl-6-oxo-1-(tetrahydro-pyran-4-yl)hexahydropyrimidin-4-yl]anilino}quinoline-4-carbonitrile]
25 | 216 | C[C@@]1(c2cccc(Nc3cccnc3OC(F)F)c2Cl)CC(=O)N(C2CCOCC2)C(=N)N1 [Example 97, (6S)-6-(2-Chloro-3-{[2-(difluoromethoxy)pyridin-3-yl]-amino}phenyl)-2-imino-6-methyl-3-(tetrahydropyran-4-yl)hexahydropyrimidin-4-one]
26 | 195 | C[C@@]1(c2cccc(Nc3ccc(C#N)cc3OC(F)F)c2Cl)CC(=O)N(C2CCOCC2)C(=N)N1 [Example 96, 4-{2-Chloro-3-[(4S)-2-imino-4-methyl-6-oxo-1-(tetrahydro-pyran-4-yl)hexahydropyrimidin-4-yl]anilino}-3-(difluoro-methoxy)benzonitrile]
27 | 193 | C[C@@]1(c2cccc(Nc3ncccc3OC(F)F)c2Cl)CC(=O)N(C2CCOCC2)C(=N)N1 [Example 102, (6S)-6-(2-Chloro-3-{[3-(difluoromethoxy)pyridin-2-yl]-amino}phenyl)-2-imino-6-methyl-3-(tetrahydropyran-4-yl)hexahydropyrimidin-4-one]
28 | 137 | C[C@@]1(c2cccc(Nc3ccc(F)cc3C#N)c2Cl)CC(=O)N(C2CCOCC2)C(=N)N1 [Example 82, 2-{2-Chloro-3-[(4S)-2-imino-4-methyl-6-oxo-1-(tetrahydro-pyran-4-yl)hexahydropyrimidin-4-yl]anilino}-5-fluorobenzo-nitrile]
29 | 34 | Cc1ccc(Nc2cccc([C@]3(C)CC(=O)N(C4CCOCC4)C(=N)N3)c2Cl)c(OC(F)F)n1 [Example 94, (6S)-6-(2-Chloro-3-{[2-(difluoromethoxy)-6-methyl-pyridin-3-yl]amino}phenyl)-2-imino-6-methyl-3-(tetrahydro-pyran-4-yl)hexahydropyrimidin-4-one]
